Literature values as cited in patent US7383946B2 (priority 2004, dated 2008).

## [O][Cl+][O-] [Chlorine dioxide, chlorine dioxide]
  concentration at which chlorine dioxide is stable in water and aqueous solutions: approximately 10 g/L
